Organism: Homo sapiens
Assay: In vitro inhibitory concentration against Chymotrypsin-like catalytic activity of the human 20S Proteasome
Assay type: functional

IC50: > 20 µM
Structure (SMILES): COc1ccc(CN[C@@H](C(=O)N[C@H](C(=O)NCc2ccc(OC)cc2OC)C(C)C)[C@H](O)[C@H](Cc2ccccc2)NC(=O)[C@@H](NC(=O)OCc2ccccc2)C(C)C)cc1

— ChEMBL document CHEMBL1134067, “Modeling of the binding mode of a non-covalent inhibitor of the 20S proteasome. Application to structure-based analogue design” (Bioorg Med Chem Lett, 2001)
